Measured values published in patent publication US20220396597A1 (priority 2019, published 2022).
pEC50: −log10 of the molar value.

Tested on: GABAAR
Assay: GABA-induced whole-cell currents in cultured hippocampal neurons (voltage clamp)
Type: cell-based, rat

`C[C@H](CCCOS(=O)(=O)O)[C@H]1CC[C@H]2[C@@H]3CC[C@H]4C[C@@H](O)CC[C@]4(C)[C@H]3CC[C@]12C` [MQ-221] was tested. Which pEC50 (0.5 μM GABA, read-out: EC50 for potentiation of GABA current (Hill fit)) did it give?
The pEC50 was 5.59.

What about the “Effect on steady-state GABA current” value (2 μM GABA, 1 μM MQ-221) of the same compound?
The value was “lack of effect”.

And the “Effect on peak GABA current” value (2 μM GABA, 1 μM and 10 μM MQ-221)?
Its value is “Potentiation”.

What about the “Effect on steady-state GABA current” value (2 μM GABA, 10 μM MQ-221) of the same compound?
The value was “inhibition”.
